# Experimental data as given in ChEMBL document CHEMBL4725382, “Uridine natural products: Challenging targets and inspiration for novel small molecule inhibitors” (Bioorg Med Chem, 2020).
# System: Mycobacterium tuberculosis
# Test: Antimycobacterial activity against Mycobacterium tuberculosis H37Rv ATCC 27294 after 14 days by resazurin reduction microplate assay
# Assay type: functional
# Conditions: H37Rv ATCC 27294, 336 h
Structure (SMILES),MIC50 [µM],MIC [µM]
CCCCC[C@H](NC(=O)N[C@@H](Cc1c[nH]c2ccccc12)C(=O)O)C(=O)N[C@H](C(=O)NC[C@H]1C[C@@H](O)[C@H](n2ccc(=O)[nH]c2=O)O1)[C@H](C)N(C)C(=O)CN,0.51,
CC(C)C[C@H](NC(=O)N[C@@H](Cc1c[nH]c2ccccc12)C(=O)O)C(=O)N[C@H](C(=O)NC[C@H]1C[C@@H](O)[C@H](n2ccc(=O)[nH]c2=O)O1)[C@H](C)N(C)C(=O)[C@@H](N)CCCN,0.95,
CC(C)[C@H](NC(=O)N[C@@H](Cc1c[nH]c2ccccc12)C(=O)O)C(=O)N[C@H](C(=O)NC[C@H]1C[C@@H](O)[C@H](n2ccc(=O)[nH]c2=O)O1)[C@H](C)N(C)C(=O)CN,0.88,
C[C@@H]([C@H](NC(=O)[C@H](Cc1cccnc1)NC(=O)N[C@@H](Cc1c[nH]c2ccccc12)C(=O)O)C(=O)NC[C@H]1C[C@@H](O)[C@H](n2ccc(=O)[nH]c2=O)O1)N(C)C(=O)CN,0.98,
CC(C)C[C@H](NC(=O)N[C@@H](Cc1c[nH]c2ccccc12)C(=O)O)C(=O)N[C@H](C(=O)NC[C@H]1C[C@@H](O)[C@H](n2ccc(=O)[nH]c2=O)O1)[C@H](C)N(C)C(=O)CN,0.63,
C[C@@H]([C@H](NC(=O)[C@H](Cc1ccccc1)NC(=O)N[C@@H](Cc1c[nH]c2ccccc12)C(=O)O)C(=O)NC[C@H]1C[C@@H](O)[C@H](n2ccc(=O)[nH]c2=O)O1)N(C)C(=O)CN,0.26,
CC(C)C[C@H](NC(=O)N[C@@H](Cc1c[nH]c2ccccc12)C(=O)O)C(=O)N[C@H](C(=O)NC[C@H]1C[C@@H](O)[C@H](n2ccc(=O)[nH]c2=O)O1)[C@H](C)N(C)C(=O)[C@@H](N)Cc1cccnc1,5.85,
CC(C)[C@H](NC(=O)N[C@@H](Cc1c[nH]c2ccccc12)C(=O)O)C(=O)N[C@H](C(=O)N/C=C1/C[C@@H](O)[C@H](n2ccc(=O)[nH]c2=O)O1)[C@H](C)N(C)C(=O)[C@@H](N)Cc1cccc(O)c1,,9.5
CC(C)C[C@H](NC(=O)N[C@@H](Cc1c[nH]c2ccccc12)C(=O)O)C(=O)N[C@H](C(=O)NC[C@H]1C[C@@H](O)[C@H](n2ccc(=O)[nH]c2=O)O1)[C@H](C)N(C)C(=O)[C@@H](N)Cc1ccc2ccccc2c1,3,
C[C@@H]([C@H](NC(=O)[C@H](Cc1ccc(C(F)(F)F)cc1)NC(=O)N[C@@H](Cc1c[nH]c2ccccc12)C(=O)O)C(=O)NC[C@H]1C[C@@H](O)[C@H](n2ccc(=O)[nH]c2=O)O1)N(C)C(=O)CN,0.2,
CC(C)C[C@H](NC(=O)N[C@@H](Cc1c[nH]c2ccccc12)C(=O)O)C(=O)N[C@H](C(=O)NC[C@H]1C[C@@H](O)[C@H](n2ccc(=O)[nH]c2=O)O1)[C@H](C)N(C)C(=O)[C@@H](N)Cc1ccccc1,4.05,
CC(C)C[C@H](NC(=O)N[C@@H](Cc1c[nH]c2ccccc12)C(=O)O)C(=O)N[C@H](C(=O)NC[C@H]1C[C@@H](O)[C@H](n2ccc(=O)[nH]c2=O)O1)[C@H](C)N(C)C(=O)[C@@H](N)CCCCN,1.35,
CC(C)C[C@H](NC(=O)N[C@@H](Cc1c[nH]c2ccccc12)C(=O)O)C(=O)N[C@H](C(=O)NC[C@H]1C[C@@H](O)[C@H](n2ccc(=O)[nH]c2=O)O1)[C@H](C)N(C)C(=O)[C@@H](N)Cc1cccc(O)c1,0.3,
C[C@@H]([C@H](NC(=O)[C@H](CCCCN)NC(=O)N[C@@H](Cc1c[nH]c2ccccc12)C(=O)O)C(=O)NC[C@H]1C[C@@H](O)[C@H](n2ccc(=O)[nH]c2=O)O1)N(C)C(=O)CN,0.7,
CC(C)C[C@H](NC(=O)N[C@@H](Cc1c[nH]c2ccccc12)C(=O)O)C(=O)N[C@H](C(=O)NC[C@H]1C[C@@H](O)[C@H](n2ccc(=O)[nH]c2=O)O1)[C@H](C)N(C)C(=O)[C@@H](N)[C@@H](C)O,1.35,
C[C@@H]([C@H](NC(=O)[C@H](Cc1c[nH]c2ccccc12)NC(=O)N[C@@H](Cc1c[nH]c2ccccc12)C(=O)O)C(=O)NC[C@H]1C[C@@H](O)[C@H](n2ccc(=O)[nH]c2=O)O1)N(C)C(=O)CN,0.44,

# System: Mycobacterium tuberculosis
# Test: Antimycobacterial activity against Mycobacterium tuberculosis H37Rv
# Assay type: functional
# Conditions: not given
row,Structure (SMILES),MIC [µM]
1,CCCCCCCCCCNC(=O)C1=CCN(C)[C@@H]([C@H](O[C@@H]2O[C@H](CN)[C@@H](O)[C@H]2O)[C@H]2O[C@@H](n3ccc(=O)[nH]c3=O)[C@H](O)[C@@H]2O)C(=O)N1C,0.98
2,CCCCCNC(=O)C1=CCN(C)[C@@H]([C@H](O[C@@H]2O[C@H](CN)[C@@H](O)[C@H]2O)[C@H]2O[C@@H](n3ccc(=O)[nH]c3=O)[C@H](O)[C@@H]2O)C(=O)N1C,0.98
3,CCCCCCCCCCCCCCCCCNC(=O)C1=CCN(C)[C@@H]([C@H](O[C@@H]2O[C@H](CN)[C@@H](O)[C@H]2O)[C@H]2O[C@@H](n3ccc(=O)[nH]c3=O)[C@H](O)[C@@H]2O)C(=O)N1C,0.98
4,CCCCCCCCCCCCCCCCCCCCNC(=O)C1=CCN(C)[C@@H]([C@H](O[C@@H]2O[C@H](CN)[C@@H](O)[C@H]2O)[C@H]2O[C@@H](n3ccc(=O)[nH]c3=O)[C@H](O)[C@@H]2O)C(=O)N1C,0.98

# System: not listed separately
# Test: Inhibition of Campylobacter concisus phosphoglycosyl transferase Pg1C
# Conditions: not given
row,Structure (SMILES),IC50 [µM]
1,O=C(O)CC[C@H](NC(=O)Cn1cc(-c2cccc(F)c2)nn1)C(=O)NC[C@H]1O[C@@H](n2ccc(=O)[nH]c2=O)[C@H](O)[C@@H]1O,72
2,COc1ccc2cc(-c3cn(CC(=O)N[C@@H](CCC(=O)O)C(=O)NC[C@H]4O[C@@H](n5ccc(=O)[nH]c5=O)[C@H](O)[C@@H]4O)nn3)ccc2c1,116
